{"source": "paper PMC10945337", "about": "(Theranostics, 2024)", "key": {"metastases": {"system": "metastases", "conditions": "cited from earlier work"}, "[1]": {"conditions": "cited from earlier work"}, "[2]": {"system": "tumor lesions (bone metastases or lymph node metastases)", "experiment": "Whole-body planar and SPECT/CT imaging-based dosimetry of tumor lesions", "format": "in vivo, human", "conditions": "n = 17 tumor lesions"}, "[3]": {"experiment": "Whole-body planar and SPECT/CT imaging-based dosimetry of normal organs (kidneys, liver, parotid and submandibular glands)", "format": "in vivo, human"}, "[4]": {"conditions": "all metastases, ref Okamoto et al. [53]"}, "[5]": {"conditions": "bone metastases, ref Violet et al. [52]"}, "[6]": {"conditions": "lymph node metastases, ref Violet et al. [52]"}, "[7]": {"conditions": "kidneys, mean ± SD, 6 mCRPC patients"}, "[8]": {"conditions": "liver, mean ± SD, 6 mCRPC patients"}, "[9]": {"conditions": "parotid gland, mean ± SD, 6 mCRPC patients"}, "[10]": {"conditions": "submandibular gland, mean ± SD, 6 mCRPC patients"}}, "note": "Read-outs that look alike come from different tables or passages of the source.", "data": [{"compound": "O=C([O-])CC[C@H](NC(=O)N[C@@H](CCCCNC(=O)CCCCCCC(=O)NCCCC[C@@H](NC(=O)[C@@H](Cc1ccccc1)NC(=O)[C@@H](Cc1ccc(O)c(I)c1)NC(=O)CC[C@H](C(=O)[O-])N1CCN(CC(=O)[O-])CCN(CC(=O)[O-])CCN(CC(=O)[O-])CC1)C(=O)[O-])C(=O)[O-])C(=O)[O-].[177Lu+3].[H+].[H+].[H+].[H+].[H+]", "note": "[[^177Lu]Lu-PSMA I&T]", "values": [{"measurement": "Absorbed dose, range", "setting": "metastases; [4]", "value": "0.22 - 12.03 Gy/GBq"}, {"measurement": "Mean absorbed dose", "setting": "metastases; [4]", "value": "3.2 ± 2.6", "unit": "Gy/GBq"}]}, {"compound": "[^177Lu]Lu-PSMA-617", "values": [{"measurement": "Patients with grade 1 / 2 xerostomia", "setting": "[1]; REALITY study, ref [16]", "value": 20.9, "unit": "%"}, {"measurement": "Patients with grade 1 / 2 xerostomia", "setting": "[1]; VISION study, ref [10]", "value": 38.8, "unit": "%"}, {"measurement": "Absorbed dose, range", "setting": "metastases; [5]", "value": "0.41-10.71 Gy/GBq"}, {"measurement": "Mean absorbed dose", "setting": "metastases; [5]", "value": 5.28, "unit": "Gy/GBq"}, {"measurement": "Absorbed dose, range", "setting": "metastases; [6]", "value": "0.52-16.23 Gy/GBq"}, {"measurement": "Mean absorbed dose", "setting": "metastases; [6]", "value": 3.91, "unit": "Gy/GBq"}, {"measurement": "Absorbed dose of the tumor lesions, range", "setting": "[2]; 6 mCRPC patients", "value": "0.42 - 12.91 Gy/GBq"}, {"measurement": "Mean absorbed dose of the tumor lesions", "setting": "[2]; 6 mCRPC patients, mean ± SD", "value": "2.59 ± 3.30", "unit": "Gy/GBq"}, {"measurement": "Effective half-life in tumor lesions (mean)", "setting": "[2]; mean ± SD", "value": "35.3 ± 6.3", "unit": "h"}, {"measurement": "A (% injected A0), monoexponential curve-fitting parameter", "setting": "[3]; [7]", "value": "4.80 ± 1.94", "unit": "% injected A0"}, {"measurement": "Absorbed dose", "setting": "[3]; [7]", "value": "0.545 ± 0.231", "unit": "mGy/MBq"}, {"measurement": "Mean absorbed dose", "setting": "[3]; [7]", "value": "0.545 ± 0.231", "unit": "Gy/GBq"}, {"measurement": "TIAC (time-integrated activity coefficient)", "setting": "[3]; [7]", "value": "1.59 ± 0.68", "unit": "h"}, {"measurement": "λ, monoexponential curve-fitting parameter", "setting": "[3]; [7]", "value": "0.028 ± 0.011", "unit": "h⁻¹"}, {"measurement": "A (% injected A0), monoexponential curve-fitting parameter", "setting": "[3]; [8]", "value": "2.28 ± 0.88", "unit": "% injected A0"}, {"measurement": "Absorbed dose", "setting": "[3]; [8]", "value": "0.103 ± 0.057", "unit": "mGy/MBq"}, {"measurement": "TIAC (time-integrated activity coefficient)", "setting": "[3]; [8]", "value": "1.65 ± 1.36", "unit": "h"}, {"measurement": "λ, monoexponential curve-fitting parameter", "setting": "[3]; [8]", "value": "0.030 ± 0.009", "unit": "h⁻¹"}, {"measurement": "A (% injected A0), monoexponential curve-fitting parameter", "setting": "[3]; [9]", "value": "0.53 ± 0.20", "unit": "% injected A0"}, {"measurement": "Absorbed dose", "setting": "[3]; [9]", "value": "0.333 ± 0.194", "unit": "mGy/MBq"}, {"measurement": "TIAC (time-integrated activity coefficient)", "setting": "[3]; [9]", "value": "0.13 ± 0.09", "unit": "h"}, {"measurement": "λ, monoexponential curve-fitting parameter", "setting": "[3]; [9]", "value": "0.031 ± 0.005", "unit": "h⁻¹"}, {"measurement": "Individual absorbed dose", "setting": "[3]; patient 1 (pre-treatment N, C, L, R), kidneys", "value": 0.666, "unit": "mGy/MBq"}, {"measurement": "Individual absorbed dose", "setting": "[3]; patient 1 (pre-treatment N, C, L, R), liver", "value": 0.199, "unit": "mGy/MBq"}, {"measurement": "Individual absorbed dose", "setting": "[3]; patient 1 (pre-treatment N, C, L, R), parotid gland", "value": 0.398, "unit": "mGy/MBq"}, {"measurement": "Individual absorbed dose", "setting": "[3]; patient 1 (pre-treatment N, C, L, R), submandibular gland", "value": 0.309, "unit": "mGy/MBq"}, {"measurement": "Individual absorbed dose", "setting": "[3]; patient 2 (pre-treatment N, C, L, A, R), kidneys", "value": 0.492, "unit": "mGy/MBq"}, {"measurement": "Individual absorbed dose", "setting": "[3]; patient 2 (pre-treatment N, C, L, A, R), liver", "value": 0.138, "unit": "mGy/MBq"}, {"measurement": "Individual absorbed dose", "setting": "[3]; patient 2 (pre-treatment N, C, L, A, R), parotid gland", "value": 0.150, "unit": "mGy/MBq"}, {"measurement": "Individual absorbed dose", "setting": "[3]; patient 2 (pre-treatment N, C, L, A, R), submandibular gland", "value": 0.190, "unit": "mGy/MBq"}, {"measurement": "Individual absorbed dose", "setting": "[3]; patient 3 (pre-treatment N, C, L, A, R), kidneys", "value": 0.906, "unit": "mGy/MBq"}, {"measurement": "Individual absorbed dose", "setting": "[3]; patient 3 (pre-treatment N, C, L, A, R), liver", "value": 0.069, "unit": "mGy/MBq"}, {"measurement": "Individual absorbed dose", "setting": "[3]; patient 3 (pre-treatment N, C, L, A, R), parotid gland", "value": 0.146, "unit": "mGy/MBq"}, {"measurement": "Individual absorbed dose", "setting": "[3]; patient 3 (pre-treatment N, C, L, A, R), submandibular gland", "value": 0.112, "unit": "mGy/MBq"}, {"measurement": "Individual absorbed dose", "setting": "[3]; patient 4 (pre-treatment N, C, L, A, R), kidneys", "value": 0.674, "unit": "mGy/MBq"}, {"measurement": "Individual absorbed dose", "setting": "[3]; patient 4 (pre-treatment N, C, L, A, R), liver", "value": 0.125, "unit": "mGy/MBq"}, {"measurement": "Individual absorbed dose", "setting": "[3]; patient 4 (pre-treatment N, C, L, A, R), parotid gland", "value": 0.703, "unit": "mGy/MBq"}, {"measurement": "Individual absorbed dose", "setting": "[3]; patient 4 (pre-treatment N, C, L, A, R), submandibular gland", "value": 0.664, "unit": "mGy/MBq"}, {"measurement": "Individual absorbed dose", "setting": "[3]; patient 5 (pre-treatment N, C, L), kidneys", "value": 0.252, "unit": "mGy/MBq"}, {"measurement": "Individual absorbed dose", "setting": "[3]; patient 5 (pre-treatment N, C, L), liver", "value": 0.037, "unit": "mGy/MBq"}, {"measurement": "Individual absorbed dose", "setting": "[3]; patient 5 (pre-treatment N, C, L), parotid gland", "value": 0.217, "unit": "mGy/MBq"}, {"measurement": "Individual absorbed dose", "setting": "[3]; patient 5 (pre-treatment N, C, L), submandibular gland", "value": 0.178, "unit": "mGy/MBq"}, {"measurement": "Individual absorbed dose", "setting": "[3]; patient 6 (pre-treatment N, C, L, A), kidneys", "value": 0.278, "unit": "mGy/MBq"}, {"measurement": "Individual absorbed dose", "setting": "[3]; patient 6 (pre-treatment N, C, L, A), liver", "value": 0.049, "unit": "mGy/MBq"}, {"measurement": "Individual absorbed dose", "setting": "[3]; patient 6 (pre-treatment N, C, L, A), parotid gland", "value": 0.387, "unit": "mGy/MBq"}, {"measurement": "Individual absorbed dose", "setting": "[3]; patient 6 (pre-treatment N, C, L, A), submandibular gland", "value": 0.259, "unit": "mGy/MBq"}, {"measurement": "A (% injected A0), monoexponential curve-fitting parameter", "setting": "[3]; [10]", "value": "0.41 ± 0.26", "unit": "% injected A0"}, {"measurement": "Absorbed dose", "setting": "[3]; [10]", "value": "0.285 ± 0.180", "unit": "mGy/MBq"}, {"measurement": "TIAC (time-integrated activity coefficient)", "setting": "[3]; [10]", "value": "0.06 ± 0.05", "unit": "h"}, {"measurement": "λ, monoexponential curve-fitting parameter", "setting": "[3]; [10]", "value": "0.030 ± 0.007", "unit": "h⁻¹"}]}]}
